These are literature values, as cited in article PMC7094870 (ACS chemical biology, 2020).

The structures appear in SMILES notation.

The subject of this data set is platinum resistant ovarian cancer and non-small cell lung cancer. The settings on record: patients; cited from earlier work.

On to `COc1ccc(C[C@H]2NC(=O)/C=C/C[C@@H]([C@H](C)[C@H]3O[C@@H]3c3ccccc3)OC(=O)[C@H](CC(C)C)OC(=O)C(C)(C)CNC2=O)cc1Cl` [cryptophycin-52], for which the “dose limiting toxicity in clinical trials” value was “dose limiting peripheral neuropathy”.
